Measured values taken from paper PMC10482691, “LTP induction by structural rather than enzymatic functions of CaMKII” (Nature, 2023).
Values joined by “and” are separate entries in the source; they are usually repeats but may differ in a detail not shown here. Identical values can stand only once. Like-named read-outs stand apart in the source and are kept apart here.

What was measured:
[1] = system: purified CaMKIIα; test: Km of CaMKII for ATP (GST-GluA1 S831 phosphorylation with increasing ATP); type: biochemical; conditions: 30 °C, 4 independent experiments, read-out: CaMKII Michaelis-Menten constant (Km) for ATP
Description: CaMKII-mediated phosphorylation of GluA1 S831 or GluN2B S1303 was measured by in vitro kinase reaction with a purified GST–GluA1 C-terminal tail or GST-GluN2B C-terminal tail. Reactions contained 40 nM CaMKII, 1 μM GST–GluA1, 50 mM PIPES, pH 7.1, 2 mM CaCl2, 10 mM MgCl2, 1 μM calmodulin, 1–4 mM ATP and 1 μM okadaic acid. Negative controls were prepared without ATP. Reactions were done at 30 °C for 20 s; reactions were stopped by adding SDS loading buffer and incubation in a boiling water bath for 5 min. GST, phospho-S831, CaMKII, phospho-T286 or phospho-S1303 were detected in the samples by immunoblot analysis. […]
Data are presented as mean values +/− SEM. a, Comparison of AS105 vs AS283 structure. b, Representative Immunoblots and quantification of in vitro kinase reactions at 30 °C with increasing ATP concentration measuring purified CaMKIIα phosphorylation of GST-GluA1 S831. […] Correlation indices before and after ionomycin-induced colocalization of GFP-CaMKII and mCherry-2BC under vehicle or 10 μM AS105 conditions (n = 23,18 cells; ***p < 0.001, RM two-way ANOVA with Šídák’s multiple comparisons test). Scale bar indicates 10 μm. […] CaMKII synaptic enrichment was measured before and after cLTP (n = 11,10 cells; *p < 0.05; RM two-way ANOVA with Šídák’s multiple comparisons test). […]

[2] = system: purified CaMKIIα; test: as above; type: biochemical
[3] = biological target: purified CaMKIIα binding to GST–GluN2B-c WT (Homo sapiens, UniProt Q9UQM7); test: CaMKII binding to immobilized GST–GluN2B-c in vitro; conditions: Ca2+/CaM, 1 mM ATP; GST–GluN2B-c WT
Description: CaMKII–GluN2B binding assays were done as described[9],[13],[25]. Briefly, GST–GluN2B-c tail (GST–2BC) was immobilized on anti-GST antibody-coated microtiter plates (Thermo Scientific), blocked for 30 min with 5% BSA and then overlaid with […] CaMKII (subunit concentration) in PIPES-buffered saline (pH 7.2) containing 2 mM Ca^2+, 1 μM CaM, 1 mM Mg^2+, 0.1% BSA and 0.1% Tween-20 for 20 min at room temperature. […] After extensive washes in buffer containing 1 mM EGTA, GST–2BC and bound CaMKII were eluted for 10 min in SDS loading buffer at 95 °C. Bound CaMKII was measured via immunoblot.

[4] = system: purified CaMKIIα; parameters: method as in PMID 29294328, PMID 8385100, PMID 19857459, PMID 14558884; conditions: read-out: previously published Km values for ATP; cited from earlier work

Structure (SMILES): Nc1ncnc2c1ncn2[C@@H]1O[C@H](COP(=O)(O)OP(=O)(O)OP(=O)(O)O)[C@@H](O)[C@H]1O [ATP]
- Km [1]: 33.3 µM
- CaMKIIα phosphorylation of GST-GluA1 S831 (relative) ([2]; 1.5625 uM ATP): 0
- CaMKIIα phosphorylation of GST-GluA1 S831 (relative) ([2]; 25 uM ATP): 0.594 and 0.4443 and 0.666 and 0.3478
- CaMKIIα phosphorylation of GST-GluA1 S831 (relative) ([2]; 100 uM ATP): 0.9012 and 0.7992 and 1.006 and 0.6032
- CaMKIIα phosphorylation of GST-GluA1 S831 (relative) ([2]; 200 uM ATP): 1.078 and 0.8135 and 1.004 and 0.7632
- CaMKIIα phosphorylation of GST-GluA1 S831 (relative) ([2]; 400 uM ATP): 1.127 and 0.9367 (2×)
- bound CaMKIIα (immunoblot, relative) [3]: 4.397 and 5.355 and 6.655 and 4.688
- Km [4]: 8 to 127 µM
